Tests used:
MV4-11 = assay: Cell proliferation inhibition (CellTiter-Glo), MV4-11; assay type: cell-based; settings: MV4-11 cells
Protocol: (§1) Test Example 2: Test of the Inhibitory Ability of Menin-MLL Interaction Inhibitors on Cell Proliferation
(§2) The inhibitory ability of the compounds of the present disclosure on the proliferation of tumor cell lines (including cell lines containing MLL fusion protein such as MV4-11, MOLM-13, THP-1 and NOMO-1, control cell lines without MLL fusion protein such as HL-60, K562 and MOLM-16, and cell lines containing NPM1 mutation such as OCI-AML3) was evaluated by using the cell viability analysis method. The cells were plated in 96-well plates at a certain concentration (e.g., 5,000-20,000 cells/well), and then an equal volume of culture medium containing 2 times the final concentration of the test compound (the final concentration ranging 10 from 1 nM to 10 μM) was added. The plates were placed in an incubator and cultured at 37° C. and 5% CO2 for 72-168 h. Before the test, an equal volume of CellTiter-Glo® Luminescent reagent was added, and the plate was incubated at room temperature for 10 min before detection using an ELISA reader (BMG LABTECH). The data were analyzed using GraphPad Prism software to obtain the IC50 value and compound fitting curve. The control compound 1 was prepared by referring to the method of Example 64 in WO2017214367.

MOLM-13 = assay: Cell proliferation inhibition (CellTiter-Glo), MOLM-13; assay type: cell-based; settings: MOLM-13 cells
Protocol: as §1, §2

[1] = biological target: Menin/MLL-4-43 peptide interaction (Homo sapiens (Human), UniProt O00255); assay: Menin-MLL interaction inhibitory activity assay (fluorescence polarization competition); assay type: binding; settings: FITC-MLL4-43-peptide, Menin recombinant protein
Protocol: Test Example 1: Menin-MLL Interaction Inhibitory Activity Assay
The inhibition of Menin/MLL-4-43 peptide interaction by small molecule inhibitors was quantitatively detected by fluorescence polarization competition assay. The experiment was performed in a 384-well plate (Corning, Cat #3575) using a reaction buffer consisting of 50 mM Tris, pH 7.5, 50 mM NaCl, and 1 mM DTT. A 40 μL reaction system included 10 μL of 8 nM Menin recombinant protein and 10 μL of the test compound at different concentrations. The compound was pre-incubated with Menin protein for 15 min, and then 20 μL of 10 nM FITC-MLL4-43-peptide was added. After incubation on a shaker at 25° C. for 60 min, the fluorescence polarization signal (FP 485 520 520) was read using BMG PHERAStar detection. The experimental data was analyzed and processed by GraphPad Prism 6 software to obtain the IC50 value. The control compound 1 was prepared by referring to the method of Example 64 in WO2017214367.

OCI-AML3 = assay: Cell proliferation inhibition (CellTiter-Glo), OCI-AML3 (NPM1 mutation); assay type: cell-based; settings: OCI-AML3 cells
Protocol: as §1, §2

[2] = Pharmacokinetics test in mouse; assay type: in vivo, ICR mice; settings: mice, p.o. 10 mg/kg; for AUC(0-t) / half-life / Cmax: male, ICR, mouse, plasma, po, 10 mg/kg; for Cmax: read-out: Cmax; for F, %: 1 mg/kg for intravenous injection
From the text: Test Example 4. In Vivo Pharmacokinetic Study
Test purpose: To determine the pharmacokinetic properties of some of the example compounds of the present disclosure in mice, rats and dogs after single intravenous injection (i.v.) and oral gavage (i.g.) administration by LC-MS/MS method.
Research methods: An appropriate amount of compound was weighed and prepared into a transparent clear solution of a certain concentration using 0.9% sodium chloride injection and 1.5 equivalents of 1M HCl aqueous solution based on the molar number of the compound. After SPF male ICR mice, SPF male SD rats, and male beagle dogs were fasted overnight, the test compound solution was given by intravenous injection and oral gavage at the corresponding dose. Anticoagulated whole blood of the test animals was collected at 5 min, 15 min, 30 min, 1 h, 2 h, 4 h, 8 h, and 24 h after administration, and plasma was separated. Plasma samples at each time point were detected by LC-MS/MS, and the plasma concentration of the compound was determined by the standard curve correction method. Phoenix WinNonlin 5.2 non-compartmental model was used to calculate the pharmacokinetic parameters of terminal elimination half-life (t½), blood peak concentration (Cmax), area under the concentration-time curve (AUC), clearance (CL), and bioavailability (F %), which was directly obtained from the serum concentration results. Blood drug concentration and pharmacokinetic parameters are expressed as mean±standard deviation (X±SD). The specific test protocols for each species are as follows.
Pharmacokinetics Test in Mouse
Test animals: SPF male ICR mice, weighing 25-30 g, 12 mice/compound, purchased from Chengdu Dossy Experimental Animal Co., Ltd.
Test design: On the day of the test, ICR mice were randomly divided into groups according to body weight, fasted but with free water for 12-14 h one day before administration, and fed 2 h after administration.
Preparation of test compound solution: The concentration of the test compound for oral gavage was 1 mg/mL. An appropriate amount of compound was weighed and prepared into a 1 mg/mL transparent clear solution using 0.9% sodium chloride injection and 1.5 equivalents of 1M HCl aqueous solution. The concentration of the test compound for intravenous injection was 0.2 mg/mL. The 1 mg/mL transparent clear solution was diluted to a concentration of 0.2 mg/mL using 0.9% sodium chloride injection. The volume of 1 M HCl solution added was calculated as: volume of 1 M HCl solution added […]=weighed amount of compound (mg)/molecular weight×1.5×1000. The amount added during preparation must not exceed the calculated value.
The test substance was administered as follows: intravenous injection: 1 mg/kg of dose, 5 mL/kg of volume, 6 mice; oral gavage: 10 mg/kg of dose, 10 mL/kg of volume, 6 mice.
Sample collection: Blood (40-50 μl) was collected in anticoagulant tubes sprayed with EDTA-K2 through the orbital venous plexus at 5 min, 15 min, 30 min, 1 h, 2 h, 4 h, 8 h, and 24 h after administration, and centrifuged at 10,000 rpm for 20 min within 1 h (the blood was saved on wet ice before and after centrifugation). The supernatant, which was plasma, was collected and frozen in a refrigerator at −20° C. or below for LC-MS/MS analysis of Full PK of male ICR mice (2 mice per group, 4 blood collection time points per mouse, crossover).

Chain of Menin/MLL-4-43 peptide interaction (O00255 whole entry, species assumed): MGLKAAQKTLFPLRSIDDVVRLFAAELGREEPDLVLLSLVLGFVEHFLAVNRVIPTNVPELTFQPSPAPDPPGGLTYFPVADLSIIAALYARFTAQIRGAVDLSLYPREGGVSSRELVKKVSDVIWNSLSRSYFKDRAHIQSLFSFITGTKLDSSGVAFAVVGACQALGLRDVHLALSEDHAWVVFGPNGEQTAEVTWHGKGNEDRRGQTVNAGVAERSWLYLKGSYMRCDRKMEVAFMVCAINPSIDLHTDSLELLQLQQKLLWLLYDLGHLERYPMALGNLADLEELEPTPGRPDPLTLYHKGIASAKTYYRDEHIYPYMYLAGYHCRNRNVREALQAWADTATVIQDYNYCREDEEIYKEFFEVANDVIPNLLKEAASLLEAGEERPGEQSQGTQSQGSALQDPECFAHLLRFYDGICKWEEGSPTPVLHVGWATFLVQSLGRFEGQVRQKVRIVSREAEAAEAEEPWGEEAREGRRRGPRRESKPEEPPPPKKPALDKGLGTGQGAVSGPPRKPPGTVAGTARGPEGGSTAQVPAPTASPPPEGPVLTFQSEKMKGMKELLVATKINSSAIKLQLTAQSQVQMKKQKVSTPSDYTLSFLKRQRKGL

SMILES	GI50 (MV4-11; 72 h) [nM]	GI50 (MOLM-13; Homo sapiens, MOLM-13, 168 h) [nM]	IC50 [1] [nM]	GI50 (OCI-AML3; Homo sapiens, OCI-AML-3, 168 h) [nM]	AUC(0-t) [2] [ng·h/mL]	half-life [2] [h]	Cmax [2] [ng/mL]	F, % [2] [%]	GI50 (MOLM-13; 168 h) [nM]	GI50 (OCI-AML3; 168 h) [nM]	GI50 (MV4-11; Homo sapiens, MV4-11, 72 h) [nM]
CCN(C(=O)c1cc(F)ccc1Oc1cncnc1N1CC2(CCN(CC3CC4CCC3CC43CCC(=O)N3)CC2)C1)C(C)C (single isomer, unassigned) [Example 3-1]	324	47.4	29	66.5							
CC(C)N(C(=O)c1cc(F)ccc1Oc1cncnc1N1CC2(CCN(CC3CC4CCC3CC43CCC(=O)N3)CC2)C1)C(C)C (single isomer, unassigned) [Example 13-1b]	55.2	63.3	33.4	31.2	7770	3.84	2010	72			
[2H]C([2H])([2H])C1C[C@]2(CC[C@@H](CN3CCC4(CC3)CN(c3ncnnc3Oc3ccc(F)cc3C(=O)N(C(C)C)C(C)C)C4)CC2)NC1=O (single isomer, unassigned) [Example 43-2]	90		48.7						137	80.6	
CC(C)N(C(=O)c1cc(F)ccc1Oc1nncnc1N1CC2(CCN(CC3CCC4(CC3)CC3(CC3)C(=O)N4)CC2)C1)C(C)C (single isomer, unassigned) [Example 44-1]			48.8						111	60.5	16.7
CCN(C(=O)c1cc(F)ccc1Oc1cncnc1N1CC2(CCN(CC3CC4CCC3CC43COC(=O)N3)CC2)C1)C(C)C (single isomer, unassigned) [Example 50-2b]	26.4		61.1						93.3	119	
CC(C)N(C(=O)c1cc(F)ccc1Oc1cncnc1N1CC2(CCN(CC3CC4CCC3CC43COC(=O)N3)CC2)C1)C(C)C (single isomer, unassigned) [Example 51-1]		101	35.3	68.5							21.1
CC(C)N(C(=O)c1cc(F)ccc1Oc1cncnc1N1CC2(CCN(CC3CC4CCC3CC43COC(=O)N3)CC2)C1)C(C)C (single isomer, unassigned) [Example 51-2]	18.8		47.6						93.3	35.3	
CCN(C(=O)c1cc(F)ccc1Oc1cncnc1N1CC2(CCN(C[C@H]3CC[C@@]4(CCC(=O)N4)CC3)CC2)C1)C(C)C [Example 1]		580		277	5290	1.51	2480	79			76.2
CC(C)N(C(=O)c1cc(F)ccc1Oc1cncnc1N1CC2(CCN(C[C@H]3CC[C@]4(CC3)CC(C)(C)C(=O)N4)CC2)C1)C1CCC1 [Example 25]		86.3	31.2	64.3							6.9
CC(C)N(C(=O)c1cc(F)ccc1Oc1nncnc1N1CC2(CCN(C[C@H]3CC[C@]4(CC3)CC(C)(C)C(=O)N4)CC2)C1)C1CC1 [Example 30]		197	33	52							35.2
CC(C)N(C(=O)c1cc(F)ccc1Oc1nncnc1N1CC2(CCN(C[C@H]3CC[C@]4(CC3)CC(C)(C)C(=O)N4)CC2)C1)C1CCC1 [Example 32]		179	39.3	63.6							17.8
CCN(C(=O)c1cc(F)ccc1Oc1nncnc1N1CC2(CCN(C[C@H]3CC[C@]4(CC3)CC(=C(C)C)C(=O)N4)CC2)C1)C(C)C [Example 60]		175	28.4	92.4							35
CC(C)=C1C[C@]2(CC[C@@H](CN3CCC4(CC3)CN(c3ncnnc3Oc3ccc(F)cc3C(=O)N(C(C)C)C(C)C)C4)CC2)NC1=O [Example 61]		108	25.5	72.1							23

The remaining compounds from weak to strong by IC50 [1], led by results:

GI50 (MV4-11; 72 h) [nM]	GI50 (MOLM-13; Homo sapiens, MOLM-13, 168 h) [nM]	IC50 [1] [nM]	GI50 (OCI-AML3; Homo sapiens, OCI-AML-3, 168 h) [nM]	AUC(0-t) [2] [ng·h/mL]	half-life [2] [h]	Cmax [2] [ng/mL]	F, % [2] [%]	GI50 (MOLM-13; 168 h) [nM]	GI50 (OCI-AML3; 168 h) [nM]	GI50 (MV4-11; Homo sapiens, MV4-11, 72 h) [nM]	SMILES
	88.9	21.8							61.7	26.4	CCN(C(=O)c1cc(F)ccc1Oc1cncnc1N1CC2(CCN(CC3CC4CCC3CC43COC(=O)N3)CC2)C1)C(C)C (single isomer, unassigned) [Example 50-1b]
20.5		21.1						125	56.4		CCN(C(=O)c1cc(F)ccc1Oc1cncnc1N1CC2(CCN(CC3CC4CCC3CC43COC(=O)N3)CC2)C1)C(C)C (single isomer, unassigned) [Example 50-2a]
41.2	122	14.8	199								CCN(C(=O)c1cc(F)ccc1Oc1nncnc1N1CC2(CCN(C[C@H]3CC[C@]4(CC3)CC(C)C(=O)N4)CC2)C1)C(C)C (single isomer, unassigned) [Example 40-1]
9.7		7.9						30.4	26.4		CC(C)N(C(=O)c1cc(F)ccc1Oc1nncnc1N1CC2(CCN(CC3CCC4(CC3)CC3(CC3)C(=O)N4)CC2)C1)C(C)C (single isomer, unassigned) [Example 44-2]
	36.2	7.8	18.5							9.6	CC(C)N(C(=O)c1cc(F)ccc1Oc1nncnc1N1CC2(CCN(C[C@H]3CC[C@]4(CC3)CC(C(C)(C)O)C(=O)N4)CC2)C1)C(C)C (single isomer, unassigned) [Example 59-1a]
	88.9	2.9	42.4							17.2	CCN(C(=O)c1cc(F)ccc1Oc1nncnc1N1CC2(CCN(C[C@H]3CC[C@]4(CC3)CC(C(C)(C)O)C(=O)N4)CC2)C1)C(C)C (stereo partly drawn) [Example 58-1]
	55.9	2.5	34.7							15.3	CC(C)N(C(=O)c1cc(F)ccc1Oc1nncnc1N1CC2(CCN(C[C@H]3CC[C@]4(CC3)CC(C(C)(C)O)C(=O)N4)CC2)C1)C(C)C (stereo partly drawn) [Example 59-1]

From US20250074910A1, “MENIN INHIBITOR AND USE THEREOF” (HITGEN INC., priority 2021, published 2025)
